In US9132171B2, “Test of insulin as a drug to reduce restenosis of vessels” (WISCONSIN ALUMNI RESEARCH FOUNDATION, priority 2012, dated 2015):

Columns and labels:
IGF-2BP3 = assay: mRNA expression array analysis of TGFbeta/Smad3-treated SMCs; assay type: cell-based, mouse; settings: data not shown
Text: Cell Culture. Aortic SMCs were isolated from mouse (MOVAS) aortas. Rat aortic fibroblasts were isolated as previously described by Pagano et al., Localization of a constitutively active, phagocyte-like NADPH oxidase in rabbit aortic adventitia: enhancement by angiotensin II, Proc. Natl. Acad. Sci. USA. December 23; 94(26):14483-8 (1997), incorporated herein by reference as if set forth in its entirety, and used to visualize collagen secretion into growth media. These cells were transfected with green fluorescent protein (GFP) and SMAD3 adenoviral vectors expressing Smad3 (AdSmad3) and GFP (AdGFP), constructed as previously described in Ryer, E. et al., Arterioscler Thromb Vasc Biol. 26:780-786, 2006, incorporated herein by reference as if set forth in its entirety. Adenoviral vector expressing GFP was used as a control (AdGFP).
CTGF and IGF-2 are present in the CM derived from SMCs that overexpress Smad3 (FIGS. 2A and B respectively).

[1] = system: left carotid artery balloon angioplasty; assay: Balloon injury model with morphometric analysis; assay type: in vivo, rat; settings: periadventitial in Pluronic gel, 14 days after injury, relative to non-treated vessels
Procedure: In vivo studies conformed to the Guide for the Care and Use of Laboratory Animals published by the US National Institute of Health. Approval from the Institutional Animal Care and Use Committee was granted. Male Sprague-Dawley rats underwent angioplasty of the left common carotid artery. Periadventitial Insulin (1 microgram) along with CTGF (100 nanogram) suspended in 200 μL of Pluronic® gel was applied to the adventitial surface of the artery immediately after injury. Control animals were subjected to application of Pluronic® gel only. Fourteen days after injury, carotid was harvested utilizing perfusion fixation at physiological pressure of 100 mmHg.
Paraffin-embedded arteries were cut into 5 μm sections for analysis. Morphometric analysis was carried out on arteries stained with Haematoxilin and Eosin. For each animal, 10 sections were selected for analysis using digital software for Dell PC Computers (ImageJ and Photoshop V.7). The areas encompassed by the lumen surface (luminal area), […], internal elastic lamina-lumen surface (neointimal area), EEL-internal elastic lamina (medial area) and EEL length were measured. For evaluation of remodeling index, the EEL was measured and compared with that of controls. […]

rat aortic fibroblasts = assay: Collagen III and I in culture medium of treated rat aortic fibroblasts (direct ELISA, Western blot); assay type: cell-based; settings: CTGF, insulin (1 ug) or both, 72 hours
Procedure: Collagen produced by rat fibroblasts was measured using Western blotting. […] GFP (control) and Smad3-transfected SMCs were starved for 24 hours in 0.5% serum DMEM medium and then treated with TGFbetal (5 ng/ml) for 48 hours. […] Thirty micrograms of proteins from each sample were separated on 10% SDS-PAGE gels. Protein samples were transferred to a polyvinylidene fluoride (PVDF) membrane. Rabbit anti-collagen type III (1:1000) and I (1:1000) (Fitzgerald) and goat-anti Rabbit (1:5000) were used as primary and secondary antibodies respectively to confirm immunoblotting. Conditioned medium was blotted parallel to unconditioned culture medium to rule out the possibility of presence of collagen in the former. Immunoblotting was carried out to visualize collagen I and III in culture medium after treating rat fibroblasts with CTGF (0.1 μg/ml) and IGF-2 (0.3 μg/ml) for 72 hours. These experiments were replicated using insulin in place of IGF-2. ELISA was used to detect the presence of IGF-2 and CTGF in the conditioned medium using the primary antibodies from Abcam® according to manufacturer's instructions. Fitzgerald Collagen I and III primary antibodies were used to visualize changes in collagen production in the fibroblast culture medium following treatment with CTGF and IGF small interfering RNA-(siRNA) transfected conditioned medium for 72 hours. […]

vessels = settings: in vivo; cited from earlier work
[2] = system: Smad3-expressing smooth muscle cells (SMCs); assay: MTT cell proliferation assay; assay type: cell-based, rat; settings: insulin 1 μg/ml, TGF-beta 5 ng/ml, 96 hours
Procedure: FIG. 7 illustrates a MTT proliferation assay of Smad3-expressing smooth muscle cells (SMCs) at 96 hours after treatment with TGF-beta (5 ng/ml) or TGF beta (5 ng/ml)+Insulin (1 μg/ml).
MTT cell proliferation assay was performed to visualize the effect of insulin on SMC proliferation. Smad3-transfected rat SMCs were stimulated with TGF-beta. Cells were then treated with 1 μg of insulin and the MTT assay was performed following 96 hours of treatment.
To determine whether insulin is sufficient for decreasing TGF-beta and Smad3-stimulated SMC proliferation, an MTT proliferation assay was carried out. Insulin abolished the TGF-beta-stimulated proliferation of Smad3-expressing SMCs (FIG. 7).

[3] = system: balloon-injured blood vessels; settings: CTGF applied to balloon-injured vessels; cited from earlier work
balloon-injured vessel = assay: Collagen I/III immunostaining of balloon-injured artery after perivascular CTGF; assay type: in vivo, rat; settings: CTGF 80 ng in 200 microliters Pluronic gel, 14 days after carotid artery injury
Text: FIG. 5 illustrates collagen subtype induction by CTGF in vivo. Arteries were injured and treated with recombinant CTGF as described in FIG. 2. Arterial sections, harvested at 14 days post-injury, were subsequently immunostained for either Type I (COLI) or Type III collagen (COLIII). (A) Representative tissue sections from solvent-(CTRL) or CTGF-treated arteries (CTGF). Negative controls were established by staining sections without primary antibodies to collagen. 100X (B) Semi-quantification of adventitial COLI or COLIII was carried out, and the effects of CTGF on COLI or COLIII were expressed as fold induction; n=6, *p<0.05 as compared to COLIII. […] FIG. 5B depicts CTGF-mediated differential production of collagens III and I when CTGF was applied around a balloon-injured vessel.

## TGFbeta: TGF-beta (5 ng/ml) used to treat Smad3-transfected SMCs
IGF-2BP3; 6 hours treatment
  IGF-2BP3 increase: 2.8 folds
IGF-2BP3; 48 hours treatment
  IGF-2BP3 increase: 2.4 folds

## insulin
[1]
  Increase in lumen size: 29.24%
  Neo-intimal growth: decreased neo-intimal growth
Rat aortic fibroblasts
  Collagen III production in rat aortic fibroblasts: some increase in collagen III
vessels
  Cell migration into the intima: inhibit cell migration into the intima
  Intima cell proliferation or apoptosis: does not decrease
  Re-endothelialization in vessels: increase re-endothelialization
[2]
  TGF-beta-stimulated proliferation of Smad3-expressing SMCs: abolished

B1: Connective Tissue Growth Factor (protein, UniProt P29279 27-349, looked up)
CCN family member 2: QNCSGPCRCPDEPAPRCPAGVSLVLDGCGCCRVCAKQLGELCTERDPCDPHKGLFCHFGSPANRKIGVCTAKDGAPCIFGGTVYRSGESFQSSCKYQCTCLDGAVGCMPLCSMDVRLPSPDCPFPRRVKLPGKCCEEWVCDEPKDQTVVGPALAAYRLEDTFGPDPTMIRANCLVQTTEWSACSKTCGMGISTRVTNDNASCRLEKQSRLCMVRPCEADLEENIKKGKKCIRTPKISKPIKFELSGCTSMKTYRAKFCGVCTDGRCCTPHRTTTLPVEFKCPDGEVMKKNMMFIKTCACHYNCPGDNDIFESLYYRKMYGDMA
notes: soluble factor secreted by blood vessel adventitial cells
[3]
  Lumen remodeling: expansively remodeled
Rat aortic fibroblasts
  Collagen III production in rat aortic fibroblasts: some increase in collagen III
balloon-injured vessel
  Adventitial collagen III versus collagen I: collagen III increased significantly more as compared to collagen I
